# Source: PubChem BioAssay (NCI)
#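 Cultured in 96-well plates, cells were exposed to test compound for 48 hours across five concentrations. GI50: concentration for 50% inhibition of growth. The concentration for full growth arrest is given as TGI.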
# System: DU-145 prostate
# Test: inhibition of tumour cell growth, NCI panel, 48 h
Structure (SMILES),TGI [µM],GI50 [nM]
CCOC(=O)c1csc(NC(=O)CN2CCCC2)n1,> 100,
O=C1OC(c2ccccc2)=N/C1=C\c1ccc([N+](=O)[O-])cc1,> 100,
CO[C@](C(=O)OC[C@H]1[C@@H](COC(C)=O)[C@@H]2O[C@H]1c1cc3c(cc12)OCO3)(c1ccccc1)C(F)(F)F,> 100,
O=C(O)Cc1ccc([N+](=O)[O-])cc1[N+](=O)[O-],> 100,
COc1cc(/C=C2\CN(S(=O)(=O)c3ccc(C)cc3)C/C(=C\c3cc(CN4CCCC4)c(O)c(OC)c3)C2=O)cc(CN2CCCC2)c1O,2.15,926
CCCCCCOc1ccc(/C=N/Nc2cc(C)nc3ccc(Cl)cc23)cc1,3.57,1860

# System: UO-31 renal
# Test: inhibition of tumour cell growth, NCI panel, 48 h
Structure (SMILES),TGI [µM],GI50 [nM]
O=C(CC1Sc2ccccc2NC1=O)Nc1ccccc1[N+](=O)[O-] (stereo unspecified),> 100,
CCOC(=O)c1csc(NC(=O)CN2CCCC2)n1,> 100,
CCn1cnc2c(=S)nc(N)[nH]c21,> 100,
CC1NC(=O)C(C)C(c2ccccc2)N(N=O)C1c1ccccc1 (stereo unspecified),> 100,
O=C1OC(c2ccccc2)=N/C1=C\c1ccc([N+](=O)[O-])cc1,> 100,
CO[C@](C(=O)OC[C@H]1[C@@H](COC(C)=O)[C@@H]2O[C@H]1c1cc3c(cc12)OCO3)(c1ccccc1)C(F)(F)F,55.4,
O=C(O)Cc1ccc([N+](=O)[O-])cc1[N+](=O)[O-],> 100,
CON(C)C(=O)C(Cc1ccccc1)NC(=O)OCc1ccccc1 (stereo unspecified),> 100,
COc1cc(/C=C2\CN(S(=O)(=O)c3ccc(C)cc3)C/C(=C\c3cc(CN4CCCC4)c(O)c(OC)c3)C2=O)cc(CN2CCCC2)c1O,2.96,1510
Cc1ccc(C(=O)OC(C(=O)O)C(OC(=O)c2ccc(C)cc2)C(=O)O)cc1 (stereo unspecified) (tested in a mixture with another compound),14.5,
CCCCCCOc1ccc(/C=N/Nc2cc(C)nc3ccc(Cl)cc23)cc1,2.88,1500

# System: HL-60(TB) leukemia
# Test: inhibition of tumour cell growth, NCI panel, 48 h
Structure (SMILES),TGI [µM],GI50 [nM]
O=C(CC1Sc2ccccc2NC1=O)Nc1ccccc1[N+](=O)[O-] (stereo unspecified),> 100,
CCOC(=O)c1csc(NC(=O)CN2CCCC2)n1,> 100,
CCn1cnc2c(=S)nc(N)[nH]c21,> 100,
CC1NC(=O)C(C)C(c2ccccc2)N(N=O)C1c1ccccc1 (stereo unspecified),61.5,
O=C1OC(c2ccccc2)=N/C1=C\c1ccc([N+](=O)[O-])cc1,> 100,
O=C(O)Cc1ccc([N+](=O)[O-])cc1[N+](=O)[O-],> 100,
CON(C)C(=O)C(Cc1ccccc1)NC(=O)OCc1ccccc1 (stereo unspecified),> 100,
Cc1ccc(C(=O)OC(C(=O)O)C(OC(=O)c2ccc(C)cc2)C(=O)O)cc1 (stereo unspecified) (tested in a mixture with another compound),4.08,
CCCCCCOc1ccc(/C=N/Nc2cc(C)nc3ccc(Cl)cc23)cc1,3.38,1390

# System: IGROV1 ovarian
# Test: inhibition of tumour cell growth, NCI panel, 48 h
Structure (SMILES),TGI [µM],GI50 [nM]
O=C(CC1Sc2ccccc2NC1=O)Nc1ccccc1[N+](=O)[O-] (stereo unspecified),> 100,
CCOC(=O)c1csc(NC(=O)CN2CCCC2)n1,> 100,
CCn1cnc2c(=S)nc(N)[nH]c21,> 100,
CC1NC(=O)C(C)C(c2ccccc2)N(N=O)C1c1ccccc1 (stereo unspecified),> 100,
O=C1OC(c2ccccc2)=N/C1=C\c1ccc([N+](=O)[O-])cc1,> 100,
CO[C@](C(=O)OC[C@H]1[C@@H](COC(C)=O)[C@@H]2O[C@H]1c1cc3c(cc12)OCO3)(c1ccccc1)C(F)(F)F,81.1,
O=C(O)Cc1ccc([N+](=O)[O-])cc1[N+](=O)[O-],> 100,
CON(C)C(=O)C(Cc1ccccc1)NC(=O)OCc1ccccc1 (stereo unspecified),> 100,
Cc1ccc(C(=O)OC(C(=O)O)C(OC(=O)c2ccc(C)cc2)C(=O)O)cc1 (stereo unspecified) (tested in a mixture with another compound),26.5,
CCCCCCOc1ccc(/C=N/Nc2cc(C)nc3ccc(Cl)cc23)cc1,3.53,1790

# System: UACC-62 melanoma
# Test: inhibition of tumour cell growth, NCI panel, 48 h
Structure (SMILES),TGI [µM],GI50 [nM]
O=C(CC1Sc2ccccc2NC1=O)Nc1ccccc1[N+](=O)[O-] (stereo unspecified),> 100,
CCOC(=O)c1csc(NC(=O)CN2CCCC2)n1,> 100,
CCn1cnc2c(=S)nc(N)[nH]c21,> 100,
CC1NC(=O)C(C)C(c2ccccc2)N(N=O)C1c1ccccc1 (stereo unspecified),> 100,
O=C1OC(c2ccccc2)=N/C1=C\c1ccc([N+](=O)[O-])cc1,96,
CO[C@](C(=O)OC[C@H]1[C@@H](COC(C)=O)[C@@H]2O[C@H]1c1cc3c(cc12)OCO3)(c1ccccc1)C(F)(F)F,> 100,
O=C(O)Cc1ccc([N+](=O)[O-])cc1[N+](=O)[O-],> 100,
CON(C)C(=O)C(Cc1ccccc1)NC(=O)OCc1ccccc1 (stereo unspecified),> 100,
Cc1ccc(C(=O)OC(C(=O)O)C(OC(=O)c2ccc(C)cc2)C(=O)O)cc1 (stereo unspecified) (tested in a mixture with another compound),19.3,
CCCCCCOc1ccc(/C=N/Nc2cc(C)nc3ccc(Cl)cc23)cc1,3.27,1780

# System: K-562 leukemia
# Test: inhibition of tumour cell growth, NCI panel, 48 h
Structure (SMILES),TGI [µM],GI50 [nM]
O=C(CC1Sc2ccccc2NC1=O)Nc1ccccc1[N+](=O)[O-] (stereo unspecified),> 100,
CCOC(=O)c1csc(NC(=O)CN2CCCC2)n1,> 100,
CCn1cnc2c(=S)nc(N)[nH]c21,> 100,
CC1NC(=O)C(C)C(c2ccccc2)N(N=O)C1c1ccccc1 (stereo unspecified),> 100,
O=C1OC(c2ccccc2)=N/C1=C\c1ccc([N+](=O)[O-])cc1,> 100,
O=C(O)Cc1ccc([N+](=O)[O-])cc1[N+](=O)[O-],> 100,
CON(C)C(=O)C(Cc1ccccc1)NC(=O)OCc1ccccc1 (stereo unspecified),> 100,
Cc1ccc(C(=O)OC(C(=O)O)C(OC(=O)c2ccc(C)cc2)C(=O)O)cc1 (stereo unspecified) (tested in a mixture with another compound),7.87,
CCCCCCOc1ccc(/C=N/Nc2cc(C)nc3ccc(Cl)cc23)cc1,2.22,467

# System: MCF7 breast
# Test: inhibition of tumour cell growth, NCI panel, 48 h
Structure (SMILES),TGI [µM],GI50 [nM]
CCOC(=O)c1csc(NC(=O)CN2CCCC2)n1,> 100,
CC1NC(=O)C(C)C(c2ccccc2)N(N=O)C1c1ccccc1 (stereo unspecified),> 100,
O=C1OC(c2ccccc2)=N/C1=C\c1ccc([N+](=O)[O-])cc1,> 100,
O=C(O)Cc1ccc([N+](=O)[O-])cc1[N+](=O)[O-],> 100,
COc1cc(/C=C2\CN(S(=O)(=O)c3ccc(C)cc3)C/C(=C\c3cc(CN4CCCC4)c(O)c(OC)c3)C2=O)cc(CN2CCCC2)c1O,3.93,967
Cc1ccc(C(=O)OC(C(=O)O)C(OC(=O)c2ccc(C)cc2)C(=O)O)cc1 (stereo unspecified) (tested in a mixture with another compound),11.8,
CCCCCCOc1ccc(/C=N/Nc2cc(C)nc3ccc(Cl)cc23)cc1,3.2,1470

# System: KM12 colon
# Test: inhibition of tumour cell growth, NCI panel, 48 h
Structure (SMILES),TGI [µM],GI50 [nM]
O=C(CC1Sc2ccccc2NC1=O)Nc1ccccc1[N+](=O)[O-] (stereo unspecified),> 100,
CCOC(=O)c1csc(NC(=O)CN2CCCC2)n1,> 100,
CCn1cnc2c(=S)nc(N)[nH]c21,> 100,
CC1NC(=O)C(C)C(c2ccccc2)N(N=O)C1c1ccccc1 (stereo unspecified),> 100,
O=C1OC(c2ccccc2)=N/C1=C\c1ccc([N+](=O)[O-])cc1,> 100,
CO[C@](C(=O)OC[C@H]1[C@@H](COC(C)=O)[C@@H]2O[C@H]1c1cc3c(cc12)OCO3)(c1ccccc1)C(F)(F)F,> 100,
O=C(O)Cc1ccc([N+](=O)[O-])cc1[N+](=O)[O-],> 100,
CON(C)C(=O)C(Cc1ccccc1)NC(=O)OCc1ccccc1 (stereo unspecified),> 100,
COc1cc(/C=C2\CN(S(=O)(=O)c3ccc(C)cc3)C/C(=C\c3cc(CN4CCCC4)c(O)c(OC)c3)C2=O)cc(CN2CCCC2)c1O,2.56,1230
Cc1ccc(C(=O)OC(C(=O)O)C(OC(=O)c2ccc(C)cc2)C(=O)O)cc1 (stereo unspecified) (tested in a mixture with another compound),19,
CCCCCCOc1ccc(/C=N/Nc2cc(C)nc3ccc(Cl)cc23)cc1,3.38,1670

# System: SNB-75 CNS
# Test: inhibition of tumour cell growth, NCI panel, 48 h
Structure (SMILES),TGI [µM],GI50 [nM]
O=C(CC1Sc2ccccc2NC1=O)Nc1ccccc1[N+](=O)[O-] (stereo unspecified),> 100,
CCOC(=O)c1csc(NC(=O)CN2CCCC2)n1,> 100,
CCn1cnc2c(=S)nc(N)[nH]c21,> 100,
CC1NC(=O)C(C)C(c2ccccc2)N(N=O)C1c1ccccc1 (stereo unspecified),> 79.3,
O=C1OC(c2ccccc2)=N/C1=C\c1ccc([N+](=O)[O-])cc1,> 100,
CO[C@](C(=O)OC[C@H]1[C@@H](COC(C)=O)[C@@H]2O[C@H]1c1cc3c(cc12)OCO3)(c1ccccc1)C(F)(F)F,71.5,
O=C(O)Cc1ccc([N+](=O)[O-])cc1[N+](=O)[O-],> 100,
CON(C)C(=O)C(Cc1ccccc1)NC(=O)OCc1ccccc1 (stereo unspecified),> 100,
COc1cc(/C=C2\CN(S(=O)(=O)c3ccc(C)cc3)C/C(=C\c3cc(CN4CCCC4)c(O)c(OC)c3)C2=O)cc(CN2CCCC2)c1O,2.56,1100
Cc1ccc(C(=O)OC(C(=O)O)C(OC(=O)c2ccc(C)cc2)C(=O)O)cc1 (stereo unspecified) (tested in a mixture with another compound),14.8,
CCCCCCOc1ccc(/C=N/Nc2cc(C)nc3ccc(Cl)cc23)cc1,3.43,1810

# System: MOLT-4 leukemia
# Test: inhibition of tumour cell growth, NCI panel, 48 h
Structure (SMILES),TGI [µM],GI50 [nM]
O=C(CC1Sc2ccccc2NC1=O)Nc1ccccc1[N+](=O)[O-] (stereo unspecified),> 100,
CCOC(=O)c1csc(NC(=O)CN2CCCC2)n1,> 100,
CCn1cnc2c(=S)nc(N)[nH]c21,> 100,
CC1NC(=O)C(C)C(c2ccccc2)N(N=O)C1c1ccccc1 (stereo unspecified),> 100,
O=C1OC(c2ccccc2)=N/C1=C\c1ccc([N+](=O)[O-])cc1,58.1,
CO[C@](C(=O)OC[C@H]1[C@@H](COC(C)=O)[C@@H]2O[C@H]1c1cc3c(cc12)OCO3)(c1ccccc1)C(F)(F)F,> 100,
O=C(O)Cc1ccc([N+](=O)[O-])cc1[N+](=O)[O-],> 100,
CON(C)C(=O)C(Cc1ccccc1)NC(=O)OCc1ccccc1 (stereo unspecified),> 100,
COc1cc(/C=C2\CN(S(=O)(=O)c3ccc(C)cc3)C/C(=C\c3cc(CN4CCCC4)c(O)c(OC)c3)C2=O)cc(CN2CCCC2)c1O,2.92,379
Cc1ccc(C(=O)OC(C(=O)O)C(OC(=O)c2ccc(C)cc2)C(=O)O)cc1 (stereo unspecified) (tested in a mixture with another compound),14.3,
CCCCCCOc1ccc(/C=N/Nc2cc(C)nc3ccc(Cl)cc23)cc1,4.05,1850
